Results reported in ChEMBL document CHEMBL4219165, “Discovery of a novel allosteric inhibitor scaffold for polyadenosine-diphosphate-ribose polymerase 14 (PARP14) macrodomain 2” (Bioorg Med Chem, 2018).

Target: Protein mono-ADP-ribosyltransferase PARP14 (Homo sapiens, UniProt Q460N5)
Assay: Displacement of ARTK(Bio)QTARK(Aoa-RADP)S from His6-tagged PARP14 MD2 (A994 to N1191 residues) (unknown origin) expressed in bacterial expression system after 30 mins by AlphaScreen assay

Sequence of Protein mono-ADP-ribosyltransferase PARP14 (Q460N5 whole entry, the tested form may be a part): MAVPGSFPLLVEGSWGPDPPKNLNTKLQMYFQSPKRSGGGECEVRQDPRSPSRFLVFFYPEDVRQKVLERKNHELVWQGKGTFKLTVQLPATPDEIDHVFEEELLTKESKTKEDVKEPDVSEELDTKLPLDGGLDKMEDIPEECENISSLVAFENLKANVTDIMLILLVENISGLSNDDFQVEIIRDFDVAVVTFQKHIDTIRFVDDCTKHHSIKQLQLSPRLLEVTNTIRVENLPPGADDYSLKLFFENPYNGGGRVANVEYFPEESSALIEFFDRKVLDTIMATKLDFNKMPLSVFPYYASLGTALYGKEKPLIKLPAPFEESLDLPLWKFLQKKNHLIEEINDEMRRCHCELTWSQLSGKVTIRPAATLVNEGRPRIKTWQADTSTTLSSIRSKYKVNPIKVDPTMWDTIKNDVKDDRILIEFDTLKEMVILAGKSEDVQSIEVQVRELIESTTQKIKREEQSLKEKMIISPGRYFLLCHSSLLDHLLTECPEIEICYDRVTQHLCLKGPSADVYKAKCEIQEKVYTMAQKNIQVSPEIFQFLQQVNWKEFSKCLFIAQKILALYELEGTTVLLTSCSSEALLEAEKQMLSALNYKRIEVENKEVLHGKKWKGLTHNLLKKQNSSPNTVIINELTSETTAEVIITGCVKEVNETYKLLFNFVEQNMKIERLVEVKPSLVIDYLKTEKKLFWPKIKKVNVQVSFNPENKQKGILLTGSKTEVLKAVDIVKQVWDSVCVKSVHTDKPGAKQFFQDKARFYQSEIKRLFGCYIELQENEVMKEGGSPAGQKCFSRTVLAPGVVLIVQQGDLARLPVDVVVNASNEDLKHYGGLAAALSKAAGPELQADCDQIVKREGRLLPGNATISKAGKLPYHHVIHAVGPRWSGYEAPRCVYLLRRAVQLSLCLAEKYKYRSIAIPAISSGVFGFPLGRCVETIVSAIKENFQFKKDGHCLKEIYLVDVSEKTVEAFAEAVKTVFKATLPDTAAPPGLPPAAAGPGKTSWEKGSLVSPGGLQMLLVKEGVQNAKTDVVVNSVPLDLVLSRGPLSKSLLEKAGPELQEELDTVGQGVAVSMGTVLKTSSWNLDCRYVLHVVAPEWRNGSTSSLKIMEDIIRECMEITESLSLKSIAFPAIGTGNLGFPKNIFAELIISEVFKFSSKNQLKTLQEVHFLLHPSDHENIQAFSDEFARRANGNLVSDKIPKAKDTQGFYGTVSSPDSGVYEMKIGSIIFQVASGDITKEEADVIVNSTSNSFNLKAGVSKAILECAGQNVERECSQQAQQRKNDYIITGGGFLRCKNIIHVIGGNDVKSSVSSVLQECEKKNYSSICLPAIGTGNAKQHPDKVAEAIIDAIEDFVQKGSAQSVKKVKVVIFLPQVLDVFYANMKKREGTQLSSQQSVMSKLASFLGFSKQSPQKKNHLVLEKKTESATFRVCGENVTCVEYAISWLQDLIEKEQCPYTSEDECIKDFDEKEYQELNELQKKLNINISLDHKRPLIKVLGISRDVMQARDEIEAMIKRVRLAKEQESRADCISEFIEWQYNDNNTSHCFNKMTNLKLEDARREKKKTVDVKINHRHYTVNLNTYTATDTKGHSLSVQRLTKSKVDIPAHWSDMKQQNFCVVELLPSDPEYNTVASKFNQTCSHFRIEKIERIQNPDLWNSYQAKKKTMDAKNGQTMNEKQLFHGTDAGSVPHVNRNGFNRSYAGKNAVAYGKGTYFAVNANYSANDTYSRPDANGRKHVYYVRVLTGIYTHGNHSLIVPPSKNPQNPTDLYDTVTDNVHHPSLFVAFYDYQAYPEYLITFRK

Compound: CC(=O)Nc1ccccc1-c1cccc2c(C(C)C)c[nH]c12
- IC50: 18 µM

Compound: COc1ccc2[nH]c3c(-c4ccccc4NC(C)=O)cccc3c2c1
- IC50: > 50 µM

Compound: CC(=O)Nc1ccccc1-c1cccc2c3c([nH]c12)CCNC3
- IC50: > 50 µM

Compound: CC(Nc1ccccc1-c1cccc2c1[nH]c1ccccc12)C(F)(F)F (racemic)
- IC50: > 50 µM
